Measured values reported in PubChem BioAssay (NCI).
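1) Cells in 96-well plates. 2) Compound, 48 h, 5 concentrations. 3) Linear interpolation between surrounding doses. 4) Unreached endpoint = highest concentration. GI50 = concentration required for 50% inhibition of growth. TGI: concentration producing complete growth inhibition.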

Key:
Experiment in all cases: NCI tumour cell line growth inhibition, 48 h
MDA-N = tested on: MDA-N
NCI/ADR-RES ovarian = tested on: NCI/ADR-RES ovarian
PC-3 prostate = tested on: PC-3 prostate
DMS 114 small cell lung = tested on: DMS 114 small cell lung
P388 leukemia = tested on: P388 leukemia
P388/ADR leukemia = tested on: P388/ADR leukemia
SN12K1 renal = tested on: SN12K1 renal

| Compound | TGI (MDA-N) [µM] | TGI (NCI/ADR-RES ovarian) [µM] | TGI (PC-3 prostate) [µM] | TGI (DMS 114 small cell lung) [µM] | further results |
| --- | --- | --- | --- | --- | --- |
| NCc1ccc(C(=O)O)cc1 | > 100 | > 100 | > 100 | – | – |
| COc1cc(C2c3cc4c(cc3[C@@H](Nc3cccc(C(C)=O)c3)C3COC(=O)[C@H]23)OCO4)cc(OC)c1O (some centres undefined) | – | > 100 | – | 4.77 | TGI (P388 leukemia): 0.254 µM; TGI (P388/ADR leukemia): 2.53 µM; TGI (SN12K1 renal): 4.61 µM |
| CC[n+]1c(/C=C/c2ccc(N(CCCl)CCCl)cc2)ccc2cc(NC(=O)/C=C/c3ccccc3)ccc21 | 1.7 | > 100 | 1.09 | 13.8 | – |
| ClCc1c(Cl)c(Cl)c(Cl)c(CCl)c1Cl | – | 17.3 | 3.15 | – | GI50 (NCI/ADR-RES ovarian): 3.5 µM; GI50 (PC-3 prostate): 1.69 µM |
| CN(C)c1ccc(N=Nc2ccccn2)cc1 | > 100 | 66.1 | 81.9 | – | – |
| Brc1ccccc1-c1ncc(-c2ccccc2)o1 | > 100 | > 100 | > 100 | – | – |
| COc1ccc(-c2cc(N3CCN(c4ccccc4)CC3)c(C#N)c(=O)o2)cc1 | – | – | – | > 100 | – |
| COc1ccc(NC(=O)/C(CC2=Nc3ccc([N+](=O)[O-])cc3NC2O)=N\NC(=O)C[N+](C)(C)C)c(OC)c1 (centres undefined) | > 100 | > 100 | > 100 | – | – |
| CCOC(=O)/C=C(\C)c1ccc(OC)cc1 | – | – | – | > 100 | – |
| CC(C)C[P+](c1ccccc1)(c1ccccc1)c1ccccc1 | – | > 100 | – | – | – |
| C=C1C(=O)OC2C1CC(O)/C(C)=C\CCC1(C)OC21 (centres undefined) | 36.2 | 62.3 | > 100 | – | – |
| N#Cc1c(NC(=S)NC(=O)c2ccccc2)nc2c(c1-c1ccccc1)CCCC2 | > 100 | > 100 | > 100 | – | – |
| CCC(C)C(=O)c1c(O)c(C/C=C(\C)CCC=C(C)C)c(O)c2c(C(O)CC)cc(=O)oc12 (centres undefined) | – | – | – | 3.35 | – |
| NCc1ccccc1C1CSCSC1 | – | – | – | > 100 | – |
| O=[N+]([O-])c1cn[n+]([O-])c2ccccc12 | 27.5 | 19.2 | 23.3 | – | – |
